The values below come from PubChem BioAssay AID192 (DTP/NCI, 2004).

This assay deals with BDF1 mice, B16 melanoma ip, median survival T/C. The assay is described as follows: NCI In Vivo Anticancer Drug Screen. Data for tumor model B16 Melanoma (intraperitoneal) in B6D2F1 (BDF1) mice. The note with it: endpoint: median survival time, higher = longer survival. The essentials: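 Each result divides a survival or tumor-size measurement in the compound-treated group by the same measurement in the vehicle group.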

Where [1] appears, read: dose: 100.0 mg/kg/injection, schedule: Q01DX009 (ip), vehicle: saline with Tween-80.
[2] abbreviates: dose: 200.0 mg/kg/injection, schedule: Q01DX009 (ip), vehicle: saline with Tween-80.
Setting [3] is: dose: 3.12 mg/kg/injection, schedule: Q01DX009 (ip), vehicle: saline.
The mark [4] stands for this setting: dose: 6.25 mg/kg/injection, schedule: Q01DX009 (ip), vehicle: saline.
Setting [5] is: dose: 50.0 mg/kg/injection, schedule: Q01DX009 (ip), vehicle: saline.

Where “and” joins values, the source holds several entries; their conditions need not be identical. Equal values may be shown once. Toxic doses and inconclusive results are not listed.

As for `ClCC[N-]CC[N-]CCCl.ClCC[N-]CC[N-]CCCl.[O-][Cl+3]([O-])([O-])O.[Zn+2]`, the T/C reads like this: (dose: 2.5 mg/kg/injection, schedule: Q01DX009 (ip), vehicle: Klucel (hydroxypropylcellulose) (HPC)) 106 % of control; (dose: 5.0 mg/kg/injection, schedule: Q01DX009 (ip), vehicle: Klucel (hydroxypropylcellulose) (HPC)) 92 % of control; (dose: 10.0 mg/kg/injection, schedule: Q01DX009 (ip), vehicle: Klucel (hydroxypropylcellulose) (HPC)) 101 % of control; (dose: 20.0 mg/kg/injection, schedule: Q01DX009 (ip), vehicle: Klucel (hydroxypropylcellulose) (HPC)) 104 % of control.
On to `O=C(/C=C/C(=O)OCC(Cl)(Cl)Cl)OCC(Cl)(Cl)Cl`, for which the T/C by setting is: under setting [1], 96 % of control; under setting [2], 92 % of control.
`CCC(=O)Nc1cccc(Cl)c1`: the T/C (dose: 75.0 mg/kg/injection, schedule: Q04DX003 (ip), vehicle: saline with Tween-80) is 110 % of control; the T/C (dose: 150.0 mg/kg/injection, schedule: Q04DX003 (ip), vehicle: saline with Tween-80) is 97 % of control; the T/C (dose: 300.0 mg/kg/injection, schedule: Q04DX003 (ip), vehicle: saline with Tween-80) was 100 % of control.
For `O=C(NC(CSC(c1ccccc1)c1ccccc1)C(=O)O)OCc1ccccc1` (stereo not given), the T/C runs as follows: (dose: 25.0 mg/kg/injection, schedule: Q01DX009 (ip), vehicle: Klucel (hydroxypropylcellulose) (HPC)) 100 % of control; (dose: 50.0 mg/kg/injection, schedule: Q01DX009 (ip), vehicle: Klucel (hydroxypropylcellulose) (HPC)) 100 % of control.
Turning to `O=C(O)CC(NC(=O)OCc1ccccc1)C(=O)O` (stereo not given), the T/C was 98 % of control (dose: 1.56 mg/kg/injection, schedule: Q01DX009 (ip), vehicle: saline); 104 % of control under setting [3]; 92 % of control under setting [4].
Turning to `O=C(Nc1ccc(Cl)cc1)c1cccnc1`, the T/C by setting is: (dose: 50.0 mg/kg/injection, schedule: Q01DX009 (ip), vehicle: saline with Tween-80) 101 % of control; under setting [1], 106 % of control; under setting [2], 94 % of control.
Regarding `COC(=O)C1=CCCN(C)C1`, the T/C under setting [3] was 100 % of control; the T/C under setting [4] is 115 % of control; the T/C (dose: 12.5 mg/kg/injection, schedule: Q01DX009 (ip), vehicle: saline) was 100 % of control; the T/C (dose: 25.0 mg/kg/injection, schedule: Q01DX009 (ip), vehicle: saline) was 92 % of control; the T/C under setting [5] was 115 % of control.
`CC(C)[C@](O)(C(=O)OCC1=CC[N+]2([O-])CC[C@@H](O)[C@@H]12)[C@H](C)O` (stereo not given in full): the T/C reads like this: (dose: 12.5 mg/kg/injection, schedule: Q01DX009 (ip), vehicle: water) 105 % of control; (dose: 16.0 mg/kg/injection, schedule: Q03HX008 (ip), vehicle: water) 93 % of control; (dose: 16.0 mg/kg/injection, schedule: Q03HX016 (ip), vehicle: water) 96 % of control; (dose: 16.0 mg/kg/injection, schedule: Q03HX024 (ip), vehicle: water) 96 % of control; (dose: 25.0 mg/kg/injection, schedule: Q01DX009 (ip), vehicle: water) 117 % of control; (dose: 32.0 mg/kg/injection, schedule: Q03HX008 (ip), vehicle: water) 99 % of control. For the same compound, the T/C (dose: 32.0 mg/kg/injection, schedule: Q03HX016 (ip), vehicle: water) is 94 % of control; the T/C (dose: 32.0 mg/kg/injection, schedule: Q03HX024 (ip), vehicle: water) is 100 % of control; the T/C (dose: 64.0 mg/kg/injection, schedule: Q01DX009 (ip), vehicle: saline) is 113 % of control; the T/C (dose: 64.0 mg/kg/injection, schedule: Q01DX009 (ip), vehicle: water) is 103 % of control; the T/C (dose: 64.0 mg/kg/injection, schedule: Q03HX008 (ip), vehicle: water) was 108 % of control; the T/C (dose: 64.0 mg/kg/injection, schedule: Q03HX016 (ip), vehicle: water) was 108 % of control. The T/C was 120 % of control (dose: 64.0 mg/kg/injection, schedule: Q03HX024 (ip), vehicle: water); 104 % of control (dose: 100.0 mg/kg/injection, schedule: Q01DX009 (ip), vehicle: saline sonified); 103 % of control (dose: 128.0 mg/kg/injection, schedule: Q01DX001 (ip), vehicle: water); 113 % of control (dose: 128.0 mg/kg/injection, schedule: Q01DX009 (ip), vehicle: saline); 119 % of control (dose: 128.0 mg/kg/injection, schedule: Q01DX009 (ip), vehicle: water); 95 % of control and 101 % of control (dose: 128.0 mg/kg/injection, schedule: Q01DX009 (oral), vehicle: water). Moreover, the T/C runs as follows: (dose: 128.0 mg/kg/injection, schedule: Q03HX008 (ip), vehicle: water) 123 % of control; (dose: 128.0 mg/kg/injection, schedule: Q04DX003 (ip), vehicle: water) 102 % of control; (dose: 128.0 mg/kg/injection, schedule: Q08DX002 (ip), vehicle: water) 105 % of control; (dose: 228.0 mg/kg/injection, schedule: Q01DX009 (ip), vehicle: saline) 119 % of control; (dose: 256.0 mg/kg/injection, schedule: Q01DX009 (oral), vehicle: water) 93 % of control and 96 % of control; (dose: 256.0 mg/kg/injection, schedule: Q03HX016 (ip), vehicle: water) 150 % of control. Also, the T/C (dose: 256.0 mg/kg/injection, schedule: Q04DX003 (ip), vehicle: water) is 106 % of control; the T/C (dose: 256.0 mg/kg/injection, schedule: Q08DX002 (ip), vehicle: water) was 118 % of control; the T/C (dose: 512.0 mg/kg/injection, schedule: Q01DX001 (ip), vehicle: water) is 113 % of control; the T/C (dose: 512.0 mg/kg/injection, schedule: Q01DX009 (ip), vehicle: water) is 150 % of control and 182 % of control; the T/C (dose: 512.0 mg/kg/injection, schedule: Q01DX009 (oral), vehicle: water) was 94 % of control and 95 % of control; the T/C (dose: 512.0 mg/kg/injection, schedule: Q08DX002 (ip), vehicle: water) was 123 % of control. The T/C runs as follows: (dose: 600.0 mg/kg/injection, schedule: Q01DX009 (ip), vehicle: water) 163 % of control; (dose: 768.0 mg/kg/injection, schedule: Q01DX009 (ip), vehicle: saline) 100 % of control; (dose: 800.0 mg/kg/injection, schedule: Q01DX009 (ip), vehicle: saline sonified) 150 % of control; (dose: 1024.0 mg/kg/injection, schedule: Q01DX009 (oral), vehicle: water) 97 % of control and 99 % of control; (dose: 2048.0 mg/kg/injection, schedule: Q08DX002 (ip), vehicle: water) 169 % of control.
For `O=C(CCl)N1c2ccccc2Oc2cc3ccccc3cc21`, the T/C reads like this: under setting [5], 113 % of control; (dose: 100.0 mg/kg/injection, schedule: Q01DX009 (ip), vehicle: saline) 106 % of control; (dose: 200.0 mg/kg/injection, schedule: Q01DX009 (ip), vehicle: saline) 104 % of control; (dose: 400.0 mg/kg/injection, schedule: Q01DX009 (ip), vehicle: saline) 109 % of control.
Consider `C/C=C1/C[C@@H](C)[C@@](C)(O)C(=O)OCC2=CC[N+]3([O-])CC[C@@H](OC1=O)[C@@H]23` (stereo not given in full), for which the T/C (dose: 10.0 mg/kg/injection, schedule: Q01DX009 (ip), vehicle: saline) is 102 % of control; the T/C (dose: 20.0 mg/kg/injection, schedule: Q01DX009 (ip), vehicle: saline) was 106 % of control; the T/C (dose: 40.0 mg/kg/injection, schedule: Q01DX009 (ip), vehicle: saline) was 113 % of control; the T/C (dose: 80.0 mg/kg/injection, schedule: Q01DX009 (ip), vehicle: saline) was 102 % of control.
